Measured values from patent publication US20220226484A1, “THERAPEUTIC PEPTIDES” (COHBAR, INC., priority 2019, published 2022).
Positions of bridges follow the written chain, without caps; N, C: chain ends. Primed or numbered codes have the meaning given here. Chains are numbered I, II in the order given. No end group written: not given here. PEG12′ = not defined here

Tests used:
[1] = test system: Rat primary cortical neurons; experiment: Neuroprotection against Aβ (1-42) toxicity in cultured neurons; assay type: cell-based; details: 24 hours
Protocol: Rat primary cortical neurons were collected and cultured by methods well known in the art (Singer et al., 1999 and Callizot et al., 2013). The cells were seeded at a density of 25,000 per well in 96-well plates precoated with poly-L-lysine and cultured at 37° C. in an air (95%)-CO2 (5%) incubator. The medium was changed every 2 days. The cortical neurons were treated after 11 days of culture. The A13(1-42) was prepared using the procedure described by Callizot et al., 2013 to ensure monomeric peptide. Compounds and the positive control, BDNF (50 ng/ml), were dissolved in culture medium and then pre-incubated with primary cortical neurons for 1 hour before addition of A13(1-42) (20 μM). After 24 hours of treatment, the cell culture supernatant was removed and the cortical neurons were fixed by a cold solution of ethanol (95%) and acetic acid (5%) for 5 min at −20° C. After permeabilization with 0.1% of saponin, cells were incubated for 2 hours with mouse monoclonal antibody anti-microtubule-associated-protein 2 (MAP-2) at a dilution of 1/400 in PBS containing 1% fetal calf serum and 0.1% of saponin to stain cell bodies and neurites.
This antibody was detected with Alexa Fluor 488 goat anti-mouse IgG at the dilution 1/400 in PBS containing 1% FCS, 0.1% saponin, for 1 hour at room temperature. For each condition, images were obtained using ImageXpress (Molecular Devices) with 20× magnification. The total number of cells and extent of neurite network was determined using Custom Module Editor (Molecular Devices).

human PC-3 tumor cells = experiment: Mouse PC-3 xenograft model of prostate cancer; assay type: in vivo; details: 5 mg/kg daily intraperitoneal
Protocol: Male BALB/c nude mice, 6-7 weeks of age, 20±2 g were inoculated subcutaneously in the right lower flank with a single volume of 0.1 ml of cell suspension containing about 1×10^7 human PC-3 tumor cells. Animals were weighed and randomized into treatment groups when the mean tumor size was around 130 mm^3. Groups of 10 animals received daily injections of test article (5 mg/kg) by intraperitoneal administration. Tumor size was measured twice per week in 2 dimensions using a calipers and tumor volume calculated by standard methods. The study was concluded on day 21 post initial-dosing (day 0).

[2] = test system: DSS-induced colitis in female C57BL/6NTac mice; experiment: DSS-induced colitis mouse model of inflammatory bowel disease; assay type: in vivo; details: 3% DSS 8 days; peptides 10 mg/kg/day intraperitoneal; CsA 80 mg/kg/day oral; AUC over 8 days
Protocol: The effect of the peptides on inflammatory disease can be assessed by monitoring fecal blood, stool consistency, and body weight loss in a DSS-induced colitis mouse model. Colitis was induced in female C57BL/6NTac mice (9-11 weeks old) by continuous ad libitum oral administration of dextran sodium sulfate (DSS) 3% in sterile drinking water for 8 days. Control (No DSS) mice received sterile water instead of DSS solution. Peptides were administered intraperitoneally once daily at 10 mg/kg/day for 8 days in combination with oral DSS. […] Daily assessments included body weight loss score, fecal blood score, stool consistency score, and composite disease activity index (DAI) score, based on the first three parameters combined. Scores recorded on each day over 8 days were used to calculate area under the curve (AUC) values for each endpoint in individual animals.

[3] = test system: bleomycin-induced lung fibrosis in male C57BL/6 mice; experiment: Therapeutic mouse model of idiopathic pulmonary fibrosis (bleomycin); assay type: in vivo; details: peptide 5 mg/kg/day intraperitoneal, nintedanib 60 mg/kg/day PO
Description: The effect of the peptides on the progression of established lung fibrosis can be assessed by monitoring lung fibrosis, lung weight, inflammatory cells in bronchoalveolar lavage fluid (BALF), soluble collagen in BALF, and body weight change in a therapeutic mouse model of idiopathic pulmonary fibrosis. Lung fibrosis was induced in lungs of male C57BL/6 mice between the ages of 6 to 8 weeks by nasophayngeal administration of bleomycin (1.5 U/kg using bleomycin clinical formulation diluted in PBS). A control group of animals were administered saline by the nasopharyngeal route (no-bleomycin control group). After one week, bleomycin-treated animals were randomized to treatment groups (N=10 per group) by body weight and treated daily with vehicle control, nintedanib positive control (60 mg/kg/day PO) or peptide (5 mg/kg/day by intraperitoneal injection). After 14 days of treatment (Day 21), lungs were removed and weighed. The post-caval lobe was separated and snap frozen. The lungs were flushed with Hanks Buffer and bronchoalveolar lavage fluid (BALF) was harvested from each animal. Total BALF leukocyte were counted. Slides were prepared from the remaining BALF leukocytes, fixed and stained with May Geimsa stain and the differential counts were recorded manually. BALF was evaluated for soluble collagen using a Sircol assay. Lungs were fixed in 10% neutral buffered formalin (NBF) for histopathological analysis. Fibrosis was assessed by histopathological analysis of H&E stained mouse lungs using an Ashcroft scoring system.

[4] = test system: RENCA cells (renal adenocarcinoma cell line); experiment: Tumor growth in RENCA syngeneic mouse model; assay type: in vivo; details: 10 mg/kg daily intraperitoneal, female BALB/c mice, 10 per group
Protocol: The effect of the peptides on tumor growth can be assessed by monitoring tumor volume in syngeneic mouse cancer models such as RENCA, a mouse tumor model using a renal adenocarcinoma cell line. RENCA cells were grown in culture. On Day 0, 1.0×10^6 cells in 100 μl PBS were implanted into the mammary fat pad of female BALB/c mice. […] Test peptides were administered daily at a dose of 10 mg/kg by intraperitoneal administration. Primary tumor volumes were determined by caliper measurements twice a week. The growth rate of each tumor was calculated as the percent of the mean tumor growth of tumors observed in the control vehicle-treated group, as determined on Day 20 of the study.

Row | Substance | Percent Protection of Neuronal Network ([1]; Aβ (1-42) 20 μM + peptide 100 nM) [%] | Percent Protection of Neuronal Network ([1]; Aβ (1-42) 20 μM + peptide 10 uM) [%] | Mean Tumor Volume (human PC-3 tumor cells; Time 0 Days, N = 10) [mm^3] | Mean Tumor Volume (human PC-3 tumor cells; Time 4 Days) [mm^3] | Mean Tumor Volume (human PC-3 tumor cells; Time 7 Days) [mm^3] | Mean Tumor Volume (human PC-3 tumor cells; Time 11 Days) [mm^3] | Mean Tumor Volume (human PC-3 tumor cells; Time 14 Days) [mm^3] | Mean Tumor Volume (human PC-3 tumor cells; Time 18 Days) [mm^3] | Mean Tumor Volume (human PC-3 tumor cells; Time 22 Days) [mm^3] | Mean (SEM) Body Weight Loss Score AUC [2] | Mean (SEM) Composite Disease Activity Index (DAI) Score AUC [2] | Mean (SEM) Fecal Blood Score AUC [2] | Mean (SEM) Stool Consistency Score AUC [2] | Mean (SEM) Leukocyte Count in BALF (Percent of Bleomycin Control) ([3]; Day 21, 14 days of treatment) | Mean (SEM) Lung Weight (Percent of Bleomycin Control) ([3]; Day 21, 14 days of treatment) | Mean (SEM) Percent Body Weight Change from Baseline ([3]; Day 21, 14 days of treatment) | Mean (SEM) Collagen Content in BALF (Percent of Bleomycin Control) ([3]; Sircol assay, Day 21) | Mean (SEM) Ashcroft Score (Percent of Bleomycin Control) ([3]; histopathology, Day 21) | Mean (SEM) Percent of Control Group Tumor Growth at Day 20 [4]
1 | RVIRMCLGVGLLGDLAG [SEQ ID NO: 3] | 80 | 81 | 131 | 136 | 203 | 270 | 400 | 596 | 806 |  |  |  |  |  |  |  |  |  | 
2 | RVIRMCLGVGLLGDLAGK{PEG12} (chain 1 RVIRMCLGVGLLGDLAGK(PEG12′); chain 2 RVIRMCLGVGLLGDLAGK(PEG12′); disulfide I:6-II:6) [SEQ ID NO: 28] |  |  |  |  |  |  |  |  |  | 1.70 (0.63) | 16.6 (1.25) | 10.3 (0.82) | 4.60 (0.74) | 72.2 (5.96) Percent | 73.8 (3.13) Percent | 2.71 (1.48) Percent | 49.6 (6.48) Percent | 80.73 (7.24) Percent | 57.3 (14.4) Percent
